{"source": "patent US20170290336A1", "about": "“Isolated Bacterial Strain of the Genus Burkholderia and Pesticidal Metabolites Therefrom” (Marrone Bio Innovations, Inc., priority 2010, published 2017)", "key": {"lettuce": {"test_system": "lettuce", "assay": "96 well plate lettuce seeding assay", "format": "in vivo", "conditions": "bioassay-guided isolation", "method": "The culture broth derived from the 10-L fermentation Burkholderia (A396) in Hy soy growth medium is extracted with Amberlite XAD-7 resin (Asolkar et al., 2006) by shaking the cell suspension with resin at 225 rpm for two hours at room temperature. The resin and cell mass are collected by filtration through cheesecloth and washed with DI water to remove salts. The resin, cell mass, and cheesecloth are then soaked for 2 h in acetone after which the acetone is filtered and dried under vacuum using rotary evaporator to give the crude extract. The crude extract is then fractionated by using reversed-phase C18 vacuum liquid chromatography (H2O/CH3OH; gradient […] to 0:100%) to give 10 fractions. These fractions are then concentrated to dryness using rotary evaporator and the resulting dry residues are screened for biological activity using 96 well plate lettuce seeding assay. The active fractions are then subjected to reversed phase HPLC (Spectra System P4000 (Thermo Scientific) to give pure compounds, which are then screened in above mentioned bioassays to locate/identify the active compounds. To confirm the identity of the compound, additional spectroscopic data such as LC/MS and NMR is recorded."}, "B. cepacia isolates": {"test_system": "B. cepacia isolates", "conditions": "366 B. cepacia isolates; cited from earlier work"}, "Monilinia fructicola": {"test_system": "Monilinia fructicola", "assay": "In vitro PDA plate assay, filter paper disks", "format": "cell-based", "conditions": "10 μL of 1.25-20 mg/mL on disks; 5 days", "method": "(§1) Fungicidal activity of FR90128 (MW 540) against three plant pathogenic fungi (Botrytis cinerea, Phytophtora sp., Monilinia fructicola) is tested in an in vitro PDA (potato dextrose agar) plate assay. Plates are inoculated with the fungus using a plug method. After the fungus had established and started to grow on the growth medium, eight sterile filter paper disks are placed on each plate about 1 cm from the edge in a circle. Ten microliters of ethanol solution containing 20, 15, 10, 7.5, 5, 2.5 1.25 mg FR90128/mL is added into filter paper disks, and the solution is left to evaporate. One disk imbedded with 10 μL of pure ethanol is used as a negative control. The assay is done with three replicates. Plates are incubated at room temperature for 5 days, after which the fungicidal activity is recorded by measuring the inhibition zone around each filter paper disk corresponding to different concentrations of FR90128."}, "Phytophtora sp.": {"test_system": "Phytophtora sp.", "assay": "In vitro PDA plate assay, filter paper disks", "format": "cell-based", "conditions": "5 days", "method": "as §1"}, "Botrytis cinerea": {"test_system": "Botrytis cinerea", "assay": "In vitro PDA plate assay, filter paper disks", "format": "cell-based", "conditions": "5 days", "method": "as §1"}, "[1]": {"test_system": "barnyard grass (Echinochloa crus-galli) seedlings", "assay": "Herbicidal laboratory assay, 96-well plate", "format": "in vivo", "conditions": "after five days; for Grass seedlings (% Mortality): 10 μg/mL concentration per well", "method": "The herbicidal activity of the active compound FR90128 (MW 540) is tested in a laboratory assay using one-week old barnyard grass (Echinochloa crus-galli) seedlings in a 96-well plate platform. One grass seedling was placed in each of the wells containing 99 microliters of DI water. One microliter aliquot of the pure compound in ethanol (10 mg/mL) is added into each well, and the plate is sealed with a lid. One microliter of ethanol in 99 microliters of water is used as a negative control. The treatments were done in eight replicates, and the sealed plate is incubated in a greenhouse under artificial lights (12 hr light/dark cycle). After five days, the results are read.\n(§2) The herbicidal activity of templamide A, B, FR901465 and FR90128 are tested in a laboratory assay using one-week old barnyard grass (Echinochloa crus-galli) and lettuce (Lactuca sativa L.) seedlings in a 96-well plate platform. One seedling is placed in each of the wells containing 99 microliters of DI water. Into each well, a one microliter aliquot of the pure compound in ethanol (10 mg/mL) is added, and the plate is sealed with a lid. One microliter of ethanol in 99 microliters of water is used as a negative control. The treatments are done in eight replicates, and the sealed plate is incubated in a greenhouse under artificial lights (12 hr light/dark cycle). After five days, the results are read. […] The herbicidal activity of templamide A against lettuce seedlings is slightly lower than for the grass. On the other hand, templamide B provides a better (100%) control of lettuce seedlings (used as a model system for broadleaf weeds) than templamide A (Table 11)."}, "[2]": {"test_system": "1st instar Beet Army Worm (Spodoptera exigua)", "assay": "96-well diet overlay assay", "format": "in vivo", "conditions": "10 μg/mL concentration per well, 100 μl on diet, 6 days at 26° C.; for mortality at 10 µg/mL: Spodoptera exigua, 144 h", "method": "The insecticidal activity of templamide A, B, FR901465 and FR90128 are tested in a laboratory assay using a 96-well diet overlay assay with ^1st instar Beet Armyworm larvae using microtiter plates with 200 μl of solid, artificial Beet Armyworm diet in each well. One hundred (100) μl of each test sample is pipetted on the top of the diet (one sample in each well), and the sample is let dry under flowing air until the surface is dry. Each sample was tested in six replicates, and water and a commercial Bt (B. thuringiensis) product are used as negative and positive controls, respectively. One first instar larvae of the test insect (Beet armyworm—Spodoptera exiqua) was placed in each well, and the plate was covered with plastic cover with airholes. The plates with insects were incubated at 26° C. for 6 days with daily mortality evaluations. Based on the results presented in Table 12, templamide A and B results in 40% and 80% mortality, respectively."}, "[3]": {"test_system": "green peach aphid (Myzus persicae)", "assay": "Sucking insect test in vivo on mustard plants", "conditions": "positive control (Avid) sprayed; 10 aphids at Day 0", "method": "The in vivo efficacy of the filtered whole cell broth is tested in a plant assay with mustard plants and green peach aphid (Myzus persicae) as the test insect. Approximately one-month-old Florida Broadleaf mustard (Brassica sp.) plants are sprayed with two different concentrations (1× and 0.5×) of the filter sterilized whole cell broth of Burkholderia sp. using a Paasche airbrush. Water and a commercial product of avermectin (Avid) are used as negative and positive controls, respectively. The plants are allowed to dry on the benchtop, after which they are placed in a 6-cup plastic container with a lid with airholes. Ten aphids at various developmental stages are placed on each test plant, and the plants are incubated under growth lamps for 7 days at 25° C. Daily evaluations for the number of aphids on each plant (summarized in table Table 8 below) are made and recorded in a notebook."}, "[4]": {"test_system": "lettuce (Lactuca sativa L.) seedlings", "assay": "Herbicidal laboratory assay, 96-well plate", "format": "in vivo", "conditions": "10 μg/mL concentration per well, after five days", "method": "as §2"}, "Burkholderia A396": {"test_system": "Burkholderia A396", "assay": "Antibiotic susceptibility, antibiotic disks on Muller-Hinton medium", "format": "cell-based, Burkholderia sp. A396", "conditions": "72-hour incubation at 25° C.", "method": "Antibiotic susceptibility of Burkholderia A396 is tested using antibiotic disks on Muller-Hinton medium as described in PML Microbiological's technical data sheet #535."}, "B. cepacia complex": {"test_system": "B. cepacia complex", "conditions": "2,621 strains in B. cepacia complex from cystic fibrosis patients; cited from earlier work"}, "[5]": {"conditions": "10 μL of 1.25-20 mg/mL on disks"}}, "data": [{"molecule": "COC(=O)c1nc(CC(C)C)oc1-c1c[nH]c2ccccc12", "note": "[templazole A]", "values": [{"measurement": "herbicidal activity of pure compound (in words)", "setting": "lettuce", "value": "active"}]}, {"molecule": "CO/N=C(\\C(=O)N[C@@H]1C(=O)N2C(C(=O)O)=C(COC(N)=O)CS[C@H]12)c1ccco1", "note": "[Cefuroxime]", "values": [{"measurement": "resistance of isolates (in words)", "setting": "B. cepacia isolates", "value": "most of them are resistant"}]}, {"molecule": "C/C=C1\\NC(=O)C2CSSCC/C=C/C(CC(=O)NC(C(C)C)C(=O)N2)OC(=O)C(C(C)C)NC1=O", "note": "(centres unmarked) [FR90128]", "values": [{"measurement": "effect on the growth of Monilinia (in words)", "setting": "Monilinia fructicola", "value": "no effect"}, {"measurement": "effect on hyphal growth of Phytophtora (in words)", "setting": "Phytophtora sp.; [5]", "value": "effective in controlling the hyphal growth"}, {"measurement": "threshold concentration for inhibition, Phytophtora", "setting": "Phytophtora sp.; 10 μL per filter paper disk", "value": 1.25, "unit": "mg/mL"}, {"measurement": "effect on hyphal growth of Botrytis (in words)", "setting": "Botrytis cinerea; [5]", "value": "effective in controlling the hyphal growth"}, {"measurement": "threshold concentration for inhibition, Botrytis", "setting": "Botrytis cinerea; 10 μL per filter paper disk", "value": 10, "unit": "mg/mL"}, {"measurement": "state of grass seedlings (in words)", "setting": "[1]; 1 microliter of 10 mg/mL in ethanol added to 99 microliters water, all eight wells", "value": "dead with no green tissue left"}, {"measurement": "mortality at 10 µg/mL", "setting": "[2]", "value": 90, "unit": "%"}]}, {"molecule": "CC[C@H](C)[C@H]1O[C@]2(C=C[C@@H]1C)C[C@@H]1C[C@@H](C/C=C(\\C)[C@@H](O[C@H]3C[C@H](OC)[C@@H](O[C@H]4C[C@H](OC)[C@@H](O)[C@H](C)O4)[C@H](C)O3)[C@@H](C)/C=C/C=C3\\CO[C@@H]4[C@H](O)C(C)=C[C@@H](C(=O)O1)[C@]34O)O2", "note": "[Avermectin]", "values": [{"measurement": "# live aphids Day 2", "setting": "[3]", "value": 0}, {"measurement": "# live aphids Day 4", "setting": "[3]", "value": 0}, {"measurement": "# live aphids Day 7", "setting": "[3]", "value": 0}]}, {"molecule": "Cc1cc(NS(=O)(=O)c2ccc(N)cc2)no1", "note": "[sulphametoxacole]", "values": [{"measurement": "resistance of isolates (in words)", "setting": "B. cepacia isolates", "value": "most of them are resistant"}]}, {"molecule": "CCC(=O)OC(C)/C=C\\C(=O)NC1CC(C)C(C/C=C(C)/C=C/C2OC(C)(O)C(O)C3(CO3)C2O)OC1C", "note": "(centres unmarked) [FR901465]", "values": [{"measurement": "Grass seedlings (% Mortality)", "setting": "[1]", "value": 88, "unit": "%"}, {"measurement": "Lettuce seedlings (% Mortality)", "setting": "[4]", "value": 100, "unit": "%"}, {"measurement": "(% Mortality)", "setting": "[2]", "value": 50, "unit": "%"}]}, {"molecule": "CN(C)[C@@H]1C(O)=C(C(N)=O)C(=O)[C@@]2(O)C(O)=C3C(=O)c4c(O)cccc4[C@@](C)(O)[C@H]3C[C@@H]12", "note": "[Tetracycline]", "values": [{"measurement": "resistance of isolates (in words)", "setting": "B. cepacia isolates", "value": "most of them are resistant"}]}, {"molecule": "CCC(=O)OC(C)/C=C\\C(=O)NC1CC(C)C(C/C=C(C)/C=C/C2OC(C)(O)C(O)C3(CO3)C2O)OC1C", "note": "(centres unmarked) [Templamide B]", "values": [{"measurement": "Grass seedlings (% Mortality)", "setting": "[1]", "value": 0, "unit": "%"}, {"measurement": "Lettuce seedlings (% Mortality)", "setting": "[4]", "value": 75, "unit": "%"}, {"measurement": "Lettuce seedlings (% Mortality)", "setting": "[4]; listed as templamide B", "value": 100, "unit": "%"}, {"measurement": "(% Mortality)", "setting": "[2]", "value": 80, "unit": "%"}]}, {"molecule": "NC[C@H]1O[C@H](O[C@H]2[C@H](O)[C@@H](O[C@H]3O[C@H](CO)[C@@H](O)[C@H](N)[C@H]3O)[C@H](N)C[C@@H]2N)[C@H](O)[C@@H](O)[C@@H]1O", "note": "[Kanamycin]", "values": [{"measurement": "Susceptibility of Burkholderia A396 (in words)", "setting": "Burkholderia A396", "value": "susceptible"}]}, {"molecule": "CCC(=O)OC(C)/C=C\\C(=O)NC1CC(C)C(C/C=C(C)/C=C/C2OC(C)(O)C(O)C(O)(CO)C2O)OC1C", "note": "(centres unmarked) [Templamide A]", "values": [{"measurement": "mortality at 10 µg/mL", "setting": "[2]", "value": 40, "unit": "%"}]}, {"molecule": "O=C(N[C@H](CO)[C@H](O)c1ccc([N+](=O)[O-])cc1)C(Cl)Cl", "note": "[Chloramphenicol]", "values": [{"measurement": "Susceptibility of Burkholderia A396 (in words)", "setting": "Burkholderia A396", "value": "susceptible"}, {"measurement": "resistance of isolates (in words)", "setting": "B. cepacia isolates", "value": "most of them are resistant"}, {"measurement": "strains resistant", "setting": "B. cepacia complex", "value": 85, "unit": "%"}, {"measurement": "strains susceptible", "setting": "B. cepacia complex", "value": 15, "unit": "%"}]}, {"molecule": "templazole B", "values": [{"measurement": "herbicidal activity of pure compound (in words)", "setting": "lettuce", "value": "herbicidally active"}]}, {"molecule": "O=C(O)c1cn(C2CC2)c2cc(N3CCNCC3)c(F)cc2c1=O", "note": "[Ciprofloxacin]", "values": [{"measurement": "Susceptibility of Burkholderia A396 (in words)", "setting": "Burkholderia A396", "value": "susceptible"}, {"measurement": "resistance of isolates (in words)", "setting": "B. cepacia isolates", "value": "most of them are resistant"}, {"measurement": "strains susceptible", "setting": "B. cepacia complex", "value": 5, "unit": "%"}]}, {"molecule": "C[C@@H](O)[C@H]1C(=O)N2C(C(=O)O)=C(SCCN=CN)C[C@H]12", "note": "[Imipenem]", "values": [{"measurement": "Susceptibility of Burkholderia A396 (in words)", "setting": "Burkholderia A396", "value": "susceptible"}, {"measurement": "resistance of isolates (in words)", "setting": "B. cepacia isolates", "value": "most of them are resistant"}, {"measurement": "strains susceptible", "setting": "B. cepacia complex", "value": 7, "unit": "%"}]}, {"molecule": "CCN1CCN(C(=O)N[C@@H](C(=O)N[C@@H]2C(=O)N3[C@@H]2SC(C)(C)[C@@H]3C(=O)O)c2ccccc2)C(=O)C1=O", "note": "[Piperacillin]", "values": [{"measurement": "Susceptibility of Burkholderia A396 (in words)", "setting": "Burkholderia A396", "value": "susceptible"}]}]}
